Experimental data as given in publication PMC3430861, “The pharmacological profile of ELIC, a prokaryotic GABA-gated receptor” (Neuropharmacology, 2012).

Biological target: T1, ELIC (Dickeya chrysanthemi, UniProt P0C7B7, INS163G)
T1 construct: expressed in transfected cells; host or cells: Xenopus laevis oocytes injected with cRNA
Assay: cell-based
Assay type: cell-based, Erwinia chrysanthemi
Method: Xenopus laevis oocyte-positive females were purchased from NASCO (Fort Atkinson, Wisconsin, USA) and maintained according to standard methods.
The ELIC sequence (Genbank accession number POC7B7) was purchased from Genscript as a synthetic gene with optimized codon usage for expression in Escherichia coli. […] Stage V and VI oocytes were injected with 20 ng cRNA, and currents recorded 1–3 days post-injection.

Compound | EC50
C[C@H](N)C(=O)O [Alanine] | > 10 mM
N=C(N)NCCC[C@H](N)C(=O)O [Arginine] | > 10 mM
NC(=O)C[C@H](N)C(=O)O [Asparagine] | > 10 mM
N[C@@H](CC(=O)O)C(=O)O [Aspartate] | > 10 mM
N[C@@H](CS)C(=O)O [Cysteine] | > 10 mM
NC(=O)CC[C@H](N)C(=O)O [Glutamine] | > 10 mM
N[C@@H](Cc1c[nH]cn1)C(=O)O [Histidine] | > 10 mM
CC[C@H](C)[C@H](N)C(=O)O [Isoleucine] | > 10 mM
N[C@@H](CCC(=O)O)C(=O)O [L-glutamate] | > 10 mM
CC(C)C[C@H](N)C(=O)O [Leucine] | > 10 mM
NCCCC[C@H](N)C(=O)O [Lysine] | > 10 mM
CSCC[C@H](N)C(=O)O [Methionine] | > 10 mM
N[C@@H](Cc1ccccc1)C(=O)O [Phenylalanine] | > 10 mM
O=C(O)[C@@H]1CCCN1 [Proline] | > 10 mM
N[C@@H](CO)C(=O)O [Serine] | > 10 mM
C[C@@H](O)[C@H](N)C(=O)O [Threonine] | > 10 mM
N[C@@H](Cc1c[nH]c2ccccc12)C(=O)O [Tryptophan] | > 10 mM
N[C@@H](Cc1ccc(O)cc1)C(=O)O [Tyrosine] | > 10 mM
CC(C)[C@H](N)C(=O)O [Valine] | > 10 mM
NCc1cc(=O)[nH]o1 [muscimol] | > 10 mM
O=C(O)[C@@H]1CCC(O)=N1 [pyroglutamate] | > 10 mM
O=C(O)CCC(=O)O [succinic acid] | > 10 mM
NCCC(=O)O [β-alanine] | > 10 mM
O=C1CCCO1 [γ-butyrolactone] | > 10 mM
